Here are results for four molecules from US20230303486A1, “CYCLOBUTYL-UREA DERIVATIVES” (Idorsia Pharmaceuticals Ltd, priority 2020, published 2023).

Where two headings read alike, the source gives them in different places.

Broadly, the IC50 is the concentration at which inhibition is half-maximal. The EC50 is the concentration needed to bring the measured effect to its halfway point. A high value points to lower potency in that assay.

The test system of assay [1] is audiogenic generalized convulsive seizures in DBA/2J mice. The assay is described as follows: Audiogenic seizure-sensitive mouse model of generalized convulsive seizures. In kind it is in vivo. The note with it: challenge 1h. On the procedure:
Compounds were formulated in a 10% polyethylene glycol 400 (PEG 400) / 90% aqueous solution of 0.5 % methylcellulose (MC 0.5%). Firstly drugs are dissolved in PEG 400 and then suspended in MC 0.5 % for oral gavage at Xmg/5 mL/kg (X see table).
• 1. Procedure: Following two days of acclimatisation, auditory seizures are induced in male juvenile DBA/2J mice (22-24 days old; Janvier Labs, France). Each mouse is placed individually in the exposure chamber, an hemispheric acrylic glass dome (diameter: 50 cm) within a sound-attenuated box. The soundattenuated box is equipped with two house lights and a camera system (Fire-I from Unibrain) in order to observe and record the behavioral seizure response. After 60 seconds of habituation, the stimulus, a mixed frequency tone of 15-20 kHz at 110 dB (SASLab Lite, Avisoft Bioacoustics), is played from a speaker that is placed on the top center of the dome. […] Seizures are classified as following: stage 0, normal behavior; stage 1, wild running; stage 2, generalized clonus; stage 3, tonic extension of the hind limbs. • 2. Compounds testing: Acute compound effects on audiogenic generalized convulsive seizures are evaluated in independent groups of 8-10 mice randomly assigned. Following oral administration of compound or vehicle, the maximum seizure stage during sound exposure is assessed. Compounds are given 1 hour before exposure to the stimulus. Each mouse is exposed to the auditory stimulus only once and euthanized afterwards by CO2 inhalation.

The test system of assay [2] is primary neuronal cultures from embryonic rat brains. The assay is described as follows: Rat oscillation assay (FLIPR, neuronal calcium oscillations). It counts as cell-based. The conditions noted are these: Rattus norvegicus. Here is the method:
This assay is a functional phenotypic assay designed to mimic epileptic seizures using primary neuronal cultures from embryonic rat brains, which form a functional neuronal network that generate synchronized intracellular calcium concentration oscillations when cultured at high density in 384-well plate. The epileptic phenotype is induced by incubating the neurons in magnesium-free assay buffer, that results in increased probability of NMDA receptor activation, leading to an increased frequency and amplitude of intracellular calcium oscillations. Once neurons are incubated with the calcium indicator dye Fluo-8 AM (Tebu-bio), neuronal calcium oscillations can be monitored in real time using FLIPR® Tetra (fluorometric plate reader, Molecular Devices). With these recordings, the effect of anti-epileptic drugs can be quantified. The anti-epileptic effect of compounds, which activate directly or indirectly the Kv7 channels can be modulated by the Kv7 channel blocker XE-991. The assay was performed as described previously (Pacico N, Mingorance-Le Meur A. New In Vitro Phenotypic Assay for Epilepsy: Fluorescent Measurement of Synchronized Neuronal Calcium Oscillations. PLoS ONE 9(1) 2014) with modifications described hereafter.
Animal care followed standard procedures in accordance with swiss institutional guidelines. Dissociated neuronal cultures were obtained from cerebral cortices of embryonic Wistar rats at embryonic stage E18 (Charles River). The uterine horns were removed by caesarian surgery from deeply anesthetized rats (Isofurane) and sacrificed by decapitation. The embryos were decapitated by closing forceps. The brains were isolated and dissected one by one in ice-cold PBS (Life Technologies) under optical control using a binocular. Meninges, olfactory bulbs, and basal ganglia were removed. Cortical hemispheres (still including the hippocampus) were cut in small pieces with tweezers and placed on ice in prechilled Hibernate-E medium (Life technology). The hemispheres were then incubated in 10 mL of Hibernate-E containing 15 U/mL papain (Worthington) for 25 min at 30° C. with gentle mixing every 10 min. Genomic DNA was then digested by prolonging the incubation during 10 min at 37° C. in presence of 4 U/mL rDNase I (Ambion). The obtained suspension was then centrifuged at 800 g for 5 min and the cell pellet was resuspended in 2 mL Hibernate-E and gently dissociated by pipetting up and down 10 times with a plastic Pasteur pipette resulting in a homogenous cell suspension. This suspension was immediately filtered through a 70 µm cell strainer (MACS® SmartStrainer, Miltenyi), collected in 10 mL Hibernate-E and centrifuged at 800 g for 5 min. The cell pellet was resuspended in Neurobasal medium, supplemented with 2% B-27, 0.5 mM Glutamax-I, 100 U/mL penicillin, 100 µg/mL streptomycin (Life Technologies) and diluted at the final concentration of 300′000 cells/mL. One day before plating the cells, 384-well plates were coated with 25 µL/well of 0.1 % poly-L-lysine solution (Sigma), incubated overnight at 37° C., washed two times with sterile distilled water and allowed to dry at room temperature for >2 h. The neurons were seeded at a density of 15′000 cells/well in 50 µL/well in a 384-well black, clear-bottomed plates (Corning) and subsequently maintained in an incubator at 37° C., 5% CO2 and 95% humidity for 8 to 10 days. After 3 and 7 days, 40% of media was renewed under sterile conditions.
Neurons seeded in the assay plates were washed with Hank’s balanced salt solution (HBSS) devoid of Ca^2+ and Mg^2+, supplemented with 20 mM HEPES (Life Technologies) and 2 mM CaCl2 (Sigma), pH 7.4 (hereafter called Assay buffer) using a Biotek EL406 plate washer. Neurons were loaded with 1 µM Fluo-8 AM in Assay buffer for 15 min at 37° C., 5% CO2. […]

The target in assay [3] is T1, Kv7.2/7.3 (human KCNQ2 and KCNQ3 genes) in HEK293 cells (Homo sapiens, UniProt O43525+O43526).
T1 construct: host or cells: HEK293
In words: Kv7.2/3 assay (FLIPR potassium assay, agonist mode). It counts as cell-based. The conditions noted are these: Kv7.2/7.3 activation, responses relative to Flupirtine. Here is the method:
HEK293 cells were stably transfected with the appropriate ion channel cDNA(s) (human KCNQ2 and KCNQ3 genes). Cells were cultured in Dulbecco’s Modified Eagle Medium /Nutrient mixture F-12 (D-MEM/F-12) supplemented with 10% fetal bovine serum, 100 U/mL penicillin G sodium, 100 µg/mL streptomycin sulfate and selection antibiotics. FLIPR Test Procedure: For FLIPR assay, cells were plated in 384-well black clear-bottomed microtiter plates (BD Biocoat Poly-D-Lysine Multiwell Cell Culture Plate) at 15′000 to 30′000 cells per well. Cells were incubated at 37° C. overnight or until cells reached sufficient density in the wells (near confluent monolayer) to use in fluorescence assays. […] Assays were performed with the FLIPR potassium assay kit (Molecular Devices) according to the manufacturer’s instructions. Dye-loading: Growth media was removed and replaced with 20 µL of dye loading buffer for 60 min at room temperature. FLIPR Recording (agonist mode): Stock solutions of test compounds were prepared at a concentration of 33.3 mM in DMSO. 5 µL of 5x concentrated test, vehicle, or control compounds solutions prepared in the stimulation buffer (K^+-free buffer with 5 mM TI^+) were added to each well and fluorescence recording was continued for 5 min. The agonist effect (EC50 and % effect) of test or control compounds on Kv7 channels was determined as follows: Raw data was exported using Screenworks® 4.2 software and the fluorescence traces were analysed using Microsoft Excel (Microsoft Corp., Redmond, WA). The test compounds responses were expressed as % of maximum response of the control compound Flupirtine (Sigma-Aldrich), which was tested at concentrations ranging from 0.03 to 100 µM. Concentration-response data were fitted to a Hill equation. Non-linear least squares fits were made assuming a simple binding model. If appropriate, fits were weighted by the standard deviation. No assumptions about the fit parameters were made; the fit parameters were determined by the algorithm.

Assay [4] deals with Knock-in mice carrying a KCNQ2 or KCNQ3 variant. The conditions noted are these: knock-in mice with spontaneous seizures, reduced seizure thresholds; cited from earlier work.
In assay [5] the test system is patients with drug-resistant focal-onset seizures. The conditions noted are these: two phase three trials; cited from earlier work.
In assay [6] the test system is seizure activity in various rodent models. The conditions noted are these: acute seizure models, DBA2 mice, rat kindling model; cited from earlier work.
Setting [7] is: 20 min, 20 min after compound addition, AUC of fluorescence, read-out: FLIPR: IC50 [nM] 20 min.
The mark [8] stands for this setting: Cortical neurone, acute phase, ratio of AUC fluorescence before and after compound addition, rat cortical neurons, Mg-free buffer, read-out: FLIPR: IC50 [nM] acute.

For the molecule `O=C(NCc1cccc(OC(F)(F)F)c1)NC12CC(C(F)(F)F)(C1)C2` [Example 23, 1-(3-Trifluoromethoxy-Benzyl)-3-(3-Trifluoromethyl-Bicyclo[1.1.1]Pent-1-yl)-Urea], the “Seizure stage [% vs. vehicle]” value in assay [1] (30 mg/kg po) was -85 % vs. vehicle. Also, the IC50 turned out to be 53 nM in assay [2] (setting [7]) and 75 nM in assay [2] (setting [8]).
For `O=C(NCc1cccc(OC(F)(F)F)c1)NC12CC(F)(C1)C2` [Example 24, 1-(3-Fluoro-bicyclo[1.1.1]pent-1-yl)-3-(3-trifluoromethoxybenzyl)-urea], the midpoint of the response in assay [3], the EC50, lay at 143 nM. The “Seizure stage [% vs. vehicle]” value in assay [1] (30 mg/kg po) is -100 % vs. vehicle. The IC50 in assay [2] (setting [7]) came out at 198 nM; in assay [2] (setting [8]) it was 208 nM.
In assay [3], `O=C(NCc1cccc(C(F)(F)F)c1)NC12CC(C(F)(F)F)(C1)C2` [Example 37, 1-(3-Trifluoromethyl-benzyl)-3-(3-trifluoromethyl-bicyclo[1.1.1]pent-1-yl)-urea] showed an EC50 of 30 nM. Moreover, the “Seizure stage [% vs. vehicle]” value in assay [1] (15 mg/kg po) is -100 % vs. vehicle. Besides, the half-inhibitory concentration (IC50) in assay [2] (setting [7]) amounted to 32 nM; in assay [2] (setting [8]) it was 26 nM.
`CCOC(=O)Nc1ccc(NCc2ccc(F)cc2)cc1N` [Retigabine/ezogabine]: the seizures result in assay [4] was “attenuated”. The seizure frequency entry in assay [5] is “significantly reduced seizure frequency”. The seizure activity result in assay [6] is given as “reduces seizure activity”.
